Assay results taken from article PMC9739180, “Discovery of a Flavonoid FM04 as a Potent Inhibitor to Reverse P-Glycoprotein-Mediated Drug Resistance in Xenografts and Improve Oral Bioavailability of Paclitaxel” (International Journal of Molecular Sciences, 2022).

Test: Cytotoxicity assay (MTS, 3 days), L929
Assay type: cell-based
Details: L929 fibroblast cells; mouse fibroblast cell line
Protocol: To each well of 96-well plate, 10,000 cells of LCC6, LCC6MDR or L929 were incubated with different concentrations of FM04 (0, 0.4, 1.2, 3.7, 11, 33 and 100 μM). The final volume in each well of 96-well plate was 100 μL and the plate was incubated for 3 days at 37 °C. The cell viability was determined using MTS assay as reported previously.

Work on O=c1cc(-c2ccc(OCCOCCNCc3ccccc3)cc2)oc2ccccc12 [FM04, 2-(4-(2-(2-(benzylamino)ethoxy)ethoxy)phenyl)-4H-chromen-4-one] yielded an IC50 at 3 days of 33 µM.
